Measured values taken from patent US20150247149A1, “Detecting and Treating Liver Damage” (The Regents of the University of California, priority 2012, published 2015).

Columns and labels:
[1] = system: HepG2 and primary rat hepatocytes; assay: Release of Annexin V-positive MPs from hepatocytes (flow cytometry); assay type: cell-based, human (HepG2); rat (primary hepatocytes); settings: hepatocytes incubated with 0.25 mM FFA up to 24 h, vs controls (FIGS. 2D, 2F, 9)
Experimental: For microparticles (MPs) isolation, HepG2 and primary rat hepatocytes were seeded onto a 100 mm dish and cultured until reaching 80-85% of confluence. Cells were incubated with 0.25 mM of palmitic, stearic, oleic or linoleic acid (FFA) in serum-free DMEM, supplemented with 1.1% penicillin and streptomycin, 1% endotoxin-free bovine serum albumin (BSA), for up to 24 h. […] The uptake of FFAs from hepatocytes was evaluated by Oil red-O staining kit (Cayman, Ann Arbor, Mich., USA) according to the manufacturer instruction. To determine the effect of caspase 3 activity, hepatocytes were treated with a selective caspase 3 inhibitor, Ac-DEVD-CHO (BD Pharmingen, Franklin Lakes, N.J., US). Control cells were incubated with the same serum-free media in association to the vehicle that was used to dissolve the FFAs. After 24 h, the supernatant were collected and centrifuged twice at 3,000 rpm for 15 minutes to remove cell debris and aggregates. The supernatant was then transferred to new tubes and ultracentrifuged at 100,000 g for 90 minutes at 10° C., to avoid contamination of exosomes.
The supernatant was collected in new tubes and used as a MP-free control and the pelleted MPs were resuspended in 200 μl of PBS for flow cytometry or in 500 μl of EGM-2 growth medium for subsequent in vitro studies. The concentration of microparticles μg/mL was determined by the BCA protein assay and different concentrations of MPs (50, 125, 250 and 500 μg/mL) were used to perform the dose-dependent angiogenesis in vitro assays. For selected purposes, in particular for the characterization analyses, crude MPs were purified by 10-70% sucrose gradient ultracentrifugation at 150,000 g for 18 h at 10° C., collected as fractions in new tubes. […]
Flow cytometry analyses for microparticles (or endothelial cells) detection were performed by using BD LSRII Flow Cytometer System (BD Biosciences, San Jose, Calif., USA) and the data were analyzed using FlowJo software (TreeStar Inc., Ashland, Oreg., USA). […]

HUVECs [2] = assay: HUVEC migration (Boyden's chamber chemotaxis, wound healing); assay type: cell-based, human; settings: supernatants from hepatocytes incubated with FFA up to 24 h; VEGF-A positive control
Experimental: In vitro migration studies have been performed by using human umbilical cell endothelial cells (HUVECs). Wound healing assay was performed to analyze chemokinesis (non-oriented migration) by using collagen-coated 6-well culture plate, where a silicon elastomer (PDMS) strip was placed vertically to the bottom of every well to create the artificial wound. HUVECs were plated and grown until reaching the complete confluence. HUVECs were treated with EBM-2 supplemented with 100 ng/mL of VEGF (Peprotech, Rocky Hill, N.J., USA), hepatocytes-derived MPs, MP-free supernatant or supernatant collected after 24 hours of treatment with FFAs. The strips were removed carefully and migration of cells was detected by a confocal microscope, capturing one picture per field every 10 minutes for 48 hours. Mitomycin (1 μg/ml) was used to inhibit cell proliferation during wound healing assay. Data were analyzed by using Wimscratch software (Wimasis, Munich, Germany) in order to get the total cell-covered area (pixel). Boyden's chamber assay was performed to analyze chemotaxis (oriented migration) by using cell culture inserts 8 μm pore size (Millipore, Billerica, Mass., USA) and 24-well plate. Each well was filled with 500 μl of serum free EBM-2 media in presence or absence of the following chemoattractants: 100 ng/mL VEGF; hepatocytes-derived MPs; MP-free supernatant or conditioned supernatant. The inserts were placed on top of each well and 150 μl of cell suspension (5×10^4 cells) was added. Plates were incubated overnight at 37° C., and then the filters were removed and stained with Vectashield mounting medium with 4′,6-diamino-2-phenylindole (DAPI) (Vector Labs, Burlingame, Calif., USA).
Migrated cells were detected with a fluorescence microscope and number per field of their nuclei was counted. For the ex vivo studies, PFP isolated from different groups of mice (chow, HF/HCarb, MCD fed mice and mice injected with control siRNA, VNN1 siRNA or PBS as vehicle) were ultracentrifuged at 100,000 g for 1 h at 10° C. to pellet the blood MPs.

HUVECs [3] = assay: HUVEC tube formation assay; assay type: cell-based, human; settings: supernatants from HepG2/primary rat hepatocytes incubated with FFA up to 24 h; VEGF-A positive control
Experimental: HUVECs (0.5-1×10^5 cells per well) were seeded onto a coated 24-well plate culture dishes with 200 μl/cm2 (thick gel method) of Matrigel (BD, Franklin Lakes, N.J., USA) and cultured in EBM-2 basal medium supplemented with 1.1% of streptomycin and penicillin in the presence of 100 ng/mL of VEGF (Peprotech, Rocky Hill, N.J., USA), hepatocytes-derived MPs, MP-free supernatant or conditioned supernatant collected after 24 hours of treatment with FFAs. In selective studies, a specific inhibitor for RhoA-ROCK (Y27632, 10 μM) was used in association with MPs in the treatment of endothelial cells. For the ex vivo studies, PFP isolated from different groups of mice (chow, HF/HCarb, MCD fed mice and mice injected with control RNA, VNN1 siRNA or PBS as vehicle) were ultracentrifuged at 100,000 g for 1 h at 10° C. to pellet the blood MPs. HUVECs were treated with MPs (or blood pure MPs) and incubated for 5 h at 37° C. Tube formation was investigated by using an inverted microscope at 4× magnification and images were captured. Tube formation image analysis was assessed by using Wimtube software (Wimasis, Munich, Germany) and the values referred to total tube length (pixel) were used for statistical and data analysis.

endothelial cell oriented (chemotaxis) and non-oriented migration induced by cell-free supernatants of FFA-treated hepatocytes (HUVECs [2]) | tube formation induced by cell-free supernatants of FFA-treated hepatocytes (HUVECs [3]) | SMILES | Annexin V positive MPs in supernatants (MP formation/release) [1]
not | not | CCCCCCCC/C=C\CCCCCCCC(=O)O [oleic acid] | failed to induce any increase
marked increase | marked increase | CCCCCCCCCCCCCCCC(=O)O [palmitic acid] | marked increase
